{
  "source": "patent US5808087A",
  "about": "“Sulfonium salts of pyrrolylbenzimidazoles” (priority 1995, dated 1998)",
  "key": {"[1]": {"experiment": "Stability of compounds (1), remaining rate by HPLC after 3 days (Test Example 3)", "assay_type": "physicochemical", "protocol": "In order to compare stabilities of the compounds, remaining rates of compounds were obtained by incubating the compounds at about 4° C. and 50° C. for 3 days and measuring comparative peak areas on HPLC (Table 4)."}, "Mouse B16 melanoma cells": {"test_system": "Mouse B16 melanoma cells", "experiment": "In vitro tumor cell growth suppressing activity (Test Example 1)", "assay_type": "cell-based", "conditions": "37° C., 3 days", "protocol": "Antitumor activity of the above-mentioned compounds was tested as follows. Mouse B16 melanoma cells were plated on a 96-well culture plate, test compounds were added to the cells one day after, and then the plate was incubated at 37° C. for 3 days under a 5%-CO2 atmosphere. According to the method described in Cancer Res. 48, 589-601, 1988, the concentrations of compounds required to inhibit cell growth by 50% were obtained. The activity is expressed by the concentrations (micrograms/milliliter). The result with distamycin is also shown for comparison."}, "[2]": {"test_system": "Colon 26 mouse colon cancer cells", "experiment": "In vivo antitumor activity, subcutaneously implanted Colon 26 (Test Example 2)", "parameters": "species or system mouse (female CDF1 mice)", "conditions": "Colon 26 s.c. in CDF1 mice, i.v. on day 1, tumors weighed day 15; for 50% T/C: 21600 min", "protocol": "A cell suspension of Colon 26 mouse colon cancer cells (1×10^7 cells/ml) in HBSS (Hanks' Balanced Salt Solution) was prepared. This cell suspension (0.1 ml each) was implanted subcutaneously into the lateral region of female CDF1 mice (day 0). One day after the tumor cell injection (day 1), the body weight of the mice was measured, and then solutions of test compounds (5% glucose solutions containing 5% Tween 80) were injected intravenously into the tails of the mice. On day 15, the resulting tumors were taken out and weighed.\nPercent average weights of tumors of animals in the test groups, in which the compounds were injected, with respect to those in the control group, in which no compounds were injected, were calculated and given as T/C values."}, "[3]": {"experiment": "Stability of compounds (2), remaining rate by HPLC after one month at 60° C. (Test Example 4)", "assay_type": "physicochemical", "protocol": "Stability of these compounds was investigated. As an index of stability, remaining rates of compounds were obtained by measuring remaining compounds after heating at 60° C. for one month. The remaining rates were measured by HPLC."}},
  "data": [
    {"smiles": "Cn1cc(NC(=O)CC[S+](C)C)cc1-c1nc2cc(C(=O)Nc3ccc(N(CCCl)CCCl)cc3)ccc2[nH]1", "note": "[1*^1]", "values": [
      {"measurement": "remaining at 72 h", "setting": "[1]; 50° C.", "result": 100, "unit": "%"},
      {"measurement": "50% Suppressing Concentration", "setting": "Mouse B16 melanoma cells", "result": 0.71, "unit": "µg/mL"},
      {"measurement": "50% T/C", "setting": "[2]", "result": 7.19, "unit": "mg/kg"},
      {"measurement": "remaining at 730 h", "setting": "[3]", "result": 96.7, "unit": "%"}
    ]},
    {"smiles": "Cn1cc(NC(=O)CC[S+](C)C)cc1-c1nc2cc(C(=O)Nc3ccc(N(CCCl)CCCl)cc3)ccc2[nH]1", "note": "[25*^2]", "values": [
      {"measurement": "50% Suppressing Concentration", "setting": "Mouse B16 melanoma cells", "result": 0.99, "unit": "µg/mL"},
      {"measurement": "50% T/C", "setting": "[2]", "result": 9.35, "unit": "mg/kg"},
      {"measurement": "Remaining rate", "setting": "[3]; 43800 min", "result": 99.4, "unit": "%"}
    ]},
    {"smiles": "COc1cccc2c1C(=O)c1c(O)c3c(c(O)c1C2=O)C[C@@](O)(C(=O)CO)C[C@@H]3O[C@H]1C[C@H](N)[C@H](O)[C@H](C)O1", "note": "[Adriamycin, adriamycin, reference compound]", "values": [
      {"measurement": "ED50", "setting": "[2]; Mus musculus, iv, 360 h, read-out: 50% T/C", "result": 12.4, "unit": "mg/kg"}
    ]},
    {"smiles": "Cn1cc(NC(=O)c2cc(NC(=O)c3cc(NC=O)cn3C)cn2C)cc1C(=O)NCCC(=N)N", "note": "[Distamycin, distamycin, reference compound]", "values": [
      {"measurement": "IC50", "setting": "Mouse B16 melanoma cells; Mus musculus, 72 h, read-out: 50% Suppressing Concentration", "result": 36, "unit": "µg/mL"}
    ]},
    {"smiles": "Cn1cc(NC(=O)CC[S+](C)C)cc1-c1nc2cc(C(=O)Nc3ccc(N(CCCl)CCCl)cc3)ccc2[nH]1", "note": "[IODIDE]", "values": [
      {"measurement": "remaining at 72 h", "setting": "[1]; 4° C.", "result": 99, "unit": "%"},
      {"measurement": "Remaining rate", "setting": "[1]; 50° C., 4320 min", "result": 83, "unit": "%"}
    ]}
  ]
}
